Data reported in patent US20240043386A1, “Modulators of the Cystic Fibrosis Transmembrane Conductance Regulator Protein and Methods of Use” (AbbVie Global Enterprises Ltd., priority 2021, published 2024).
Where two headings read alike, the source gives them in different places.

Legend:
F508delCFTR = molecular target: T1, F508delCFTR (Homo sapiens, UniProt P13569, DEL508-508); experiment: Cell Surface Expression-Horse Radish Peroxidase (CSE-HRP) assay in CFBE41o-F508delCFTR-HRP cells; format: cell-based; conditions: for EC50: CFBE41o-F508delCFTR-HRP cells, 18-24 hours at 33° C., luminescence; for Maximum % activity (without co-corrector) / Maximum % activity (with co-corrector): normalized to on-plate positive control corrector (2 μM)
T1 construct: expressed in transfected cells; host or cells: CFBE41o- human lung-derived epithelial cell line, doxycycline-inducible expression
How it was run: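 CFBE41o- cells expressing F508delCFTR with HRP in the fourth exofacial loop were doxycycline-induced (0.5 μg/mL) for 68–72 h, then exposed to correctors for 18–24 h at 33 °C, with or without 2 μM co-corrector. Surface HRP was read by luminol luminescence, and % activity was normalized to the on-plate positive control; EC50 came from a variable-slope sigmoidal fit (8 points, 3-fold dilution, 20 or 30 μM top).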

F508del/F508del CFTR = molecular target: T2, F508del/F508del CFTR (Homo sapiens, UniProt P13569, DEL508-508); experiment: Trans-Epithelial Current Clamp (TECC) assay using primary human bronchial epithelial cells; format: cell-based; conditions: for Emax (% Dual): maximum percent activity relative to positive control (co-corrector 0.15 μM + potentiator 0.45 μM = 100%), primary hBE cells F508del/F508del; for EC50: primary hBE cells homozygous F508del/F508del, test C2 corrector with co-corrector and potentiator, 18-24 hours at 37° C., equivalent CFTR current (IEQ)/AUC
T2 construct: cells isolated from CF patients with the homozygous mutation; endogenous in cells; host or cells: primary human bronchial epithelial (hBE) cells from CF patients homozygous for F508del
How it was run: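 F508del/F508del primary hBE cells grown 35 days at air-liquid interface were treated basolaterally with C2 correctors plus fixed co-corrector and potentiator for 18-24 h at 37° C. TECC-24 current clamp at 36.5° C in HEPES-buffered F-12 Coon's, pH 7.4; equivalent current IEQ=VT/RT, plus AUC between forskolin peak and bumetanide.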

[1] = with co-corrector (2 μM), read-out: EC50 (with co-corrector)
[2] = without co-corrector, read-out: EC50 (without co-corrector)

T1 sequence (P13569 with tags, fused parts or gaps DEL508-508): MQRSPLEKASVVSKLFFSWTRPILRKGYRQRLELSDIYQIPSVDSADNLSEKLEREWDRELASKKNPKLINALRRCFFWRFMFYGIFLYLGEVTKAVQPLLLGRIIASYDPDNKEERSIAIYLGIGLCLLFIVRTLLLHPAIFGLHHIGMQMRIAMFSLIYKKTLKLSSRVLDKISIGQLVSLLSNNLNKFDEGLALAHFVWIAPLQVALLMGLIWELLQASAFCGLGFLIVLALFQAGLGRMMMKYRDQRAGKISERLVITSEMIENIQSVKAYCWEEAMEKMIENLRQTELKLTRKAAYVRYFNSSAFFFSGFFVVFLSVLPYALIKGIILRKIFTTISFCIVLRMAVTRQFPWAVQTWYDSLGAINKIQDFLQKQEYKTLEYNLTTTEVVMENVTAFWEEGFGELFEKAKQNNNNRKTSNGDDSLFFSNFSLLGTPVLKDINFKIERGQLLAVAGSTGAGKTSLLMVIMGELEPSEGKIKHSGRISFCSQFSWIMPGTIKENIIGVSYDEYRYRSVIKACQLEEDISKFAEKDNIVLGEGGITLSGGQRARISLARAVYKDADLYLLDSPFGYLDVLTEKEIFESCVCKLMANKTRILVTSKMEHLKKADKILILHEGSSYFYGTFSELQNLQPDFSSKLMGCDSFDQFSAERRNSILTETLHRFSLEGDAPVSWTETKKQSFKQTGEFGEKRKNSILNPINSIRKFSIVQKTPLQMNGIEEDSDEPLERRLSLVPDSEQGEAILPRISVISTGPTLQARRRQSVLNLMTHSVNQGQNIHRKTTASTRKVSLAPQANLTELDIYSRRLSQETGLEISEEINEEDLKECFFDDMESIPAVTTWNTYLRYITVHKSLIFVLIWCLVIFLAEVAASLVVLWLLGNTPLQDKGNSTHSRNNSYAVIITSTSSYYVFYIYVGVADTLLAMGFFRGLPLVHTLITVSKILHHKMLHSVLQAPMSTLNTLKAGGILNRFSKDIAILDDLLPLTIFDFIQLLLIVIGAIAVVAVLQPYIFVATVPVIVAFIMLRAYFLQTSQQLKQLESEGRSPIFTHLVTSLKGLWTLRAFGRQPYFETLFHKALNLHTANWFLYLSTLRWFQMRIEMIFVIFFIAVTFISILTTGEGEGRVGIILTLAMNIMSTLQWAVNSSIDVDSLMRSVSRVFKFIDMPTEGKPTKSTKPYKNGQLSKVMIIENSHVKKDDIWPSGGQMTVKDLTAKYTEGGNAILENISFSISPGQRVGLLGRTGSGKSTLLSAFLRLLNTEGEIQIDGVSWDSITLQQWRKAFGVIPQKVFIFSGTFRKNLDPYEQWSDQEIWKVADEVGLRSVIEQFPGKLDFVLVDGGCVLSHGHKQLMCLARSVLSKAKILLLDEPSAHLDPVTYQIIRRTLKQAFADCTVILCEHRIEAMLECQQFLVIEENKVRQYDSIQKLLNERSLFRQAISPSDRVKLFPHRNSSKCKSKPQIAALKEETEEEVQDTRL
T2 sequence (P13569 with tags, fused parts or gaps DEL508-508): as above

Compound	EC50 (F508delCFTR; [1]) [nM]	EC50 (F508delCFTR; [2]) [nM]	Maximum % activity (without co-corrector) (F508delCFTR; without co-corrector) [%]	Emax (% Dual) (F508del/F508del CFTR)	EC50 (F508del/F508del CFTR) [nM]	Maximum % activity (with co-corrector) (F508delCFTR; with co-corrector (2 μM)) [%]	Maximum % activity (without co-corrector) (F508delCFTR; without co-corrector, 2 µM) [%]
COc1cnc([C@H]2C[C@@]2(C(=O)NS(=O)(=O)c2cccc3nc(C)ccc23)c2cc(C)ccc2OC)c(OC)n1 [Example 82, (1S,2S)-2-(3,5-dimethoxypyrazin-2-yl)-1-(2-methoxy-5-methylphenyl)-N-(2-methylquinoline-5-sulfonyl)cyclopropane-1-carboxamide]	351	730	937	210	52.2		
COc1ccc(C)cc1[C@]1(C(=O)NS(=O)(=O)c2cccc3nc(C)ccc23)C[C@@H]1c1ccccc1C(F)(F)F (racemic) [Example 29, rac-(1r,2s)-1-(2-methoxy-5-methylphenyl)-N-(2-methylquinoline-5-sulfonyl)-2-[2-(trifluoromethyl)phenyl]cyclopropane-1-carboxamide]	164	273	666	241	7.7		
COc1cncc([C@@H]2C[C@]2(C(=O)NS(=O)(=O)c2cccc3nc(C)ccc23)c2cc(C)ccc2OC)n1 (single isomer, unassigned) [Example 74]	743	1290	188	222	222	545	
COc1ccc(C)cc1[C@@]1(C(=O)NS(=O)(=O)c2cccc3nc(C)ccc23)C[C@H]1c1ccc(C(C)C)nc1OC (single isomer, unassigned) [Example 87]	165	452	881	271	6.9		
COc1ccc(C)cc1[C@@]1(C(=O)NS(=O)(=O)c2cccc3nc(C)ccc23)C[C@H]1c1cnc(C)cn1 (single isomer, unassigned) [Example 91]	4340	5240	226	138	> 800	579	
COc1ccc(C)cc1[C@]1(C(=O)NS(=O)(=O)c2cccc3nc(C)ccc23)C[C@@H]1c1ccc(C(C)C)nc1 [Example 67, (1S,2R)-1-(2-methoxy-5-methylphenyl)-N-(2-methylquinoline-5-sulfonyl)-2-[6-(propan-2-yl)pyridin-3-yl]cyclopropane-1-carboxamide]	1610	3320	492	174	20.7	989	
COc1cncc([C@@H]2C[C@]2(C(=O)NS(=O)(=O)c2cccc3nc(C)ccc23)c2cc(C)ccc2OC)c1 (racemic) [Example 41, rac-(1r,2s)-1-(2-methoxy-5-methylphenyl)-2-(5-methoxypyridin-3-yl)-N-(2-methylquinoline-5-sulfonyl)cyclopropane-1-carboxamide]	1770	2980	497	244	110		
COc1ccc(C)cc1[C@]1(C(=O)NS(=O)(=O)c2cccc3nc(C)ccc23)C[C@@H]1c1cnc(OC)c(F)c1 [Example 76, (1S,2R)-2-(5-fluoro-6-methoxypyridin-3-yl)-1-(2-methoxy-5-methylphenyl)-N-(2-methylquinoline-5-sulfonyl)cyclopropane-1-carboxamide]	989	2140		269	2.4		
COc1ccc([C@@H]2C[C@]2(C(=O)NS(=O)(=O)c2cccc3nc(C)ccc23)c2cc(C)ccc2OC)c(OC)n1 (racemic) [Example 79, rac-(1r,2s)-2-(2,6-dimethoxypyridin-3-yl)-1-(2-methoxy-5-methylphenyl)-N-(2-methylquinoline-5-sulfonyl)cyclopropane-1-carboxamide]	171	465	388	205	21.6	860	
COc1cnc([C@@H]2C[C@]2(C(=O)NS(=O)(=O)c2cccc3nc(C)ccc23)c2cc(C)ccc2OC)cn1 (single isomer, unassigned) [Example 47]	1280	2210	322	247	85.2	775	
COc1cncc([C@H]2C[C@@]2(C(=O)NS(=O)(=O)c2cccc3nc(C)ccc23)c2cc(C)ccc2OC)c1 (single isomer, unassigned) [Example 52]	2140	3320	608	283	26.6		
COc1cccc([C@H]2C[C@@]2(C(=O)NS(=O)(=O)c2cccc3nc(C)ccc23)c2cc(C)ccc2OC)c1 (single isomer, unassigned) [Example 28]	417	951		304	2.6		
CCOc1cnc([C@@H]2C[C@]2(C(=O)NS(=O)(=O)c2cccc3nc(C)ccc23)c2cc(C)ccc2OC)cn1 (racemic) [Example 62, rac-(1r,2r)-2-(5-ethoxypyrazin-2-yl)-1-(2-methoxy-5-methylphenyl)-N-(2-methylquinoline-5-sulfonyl)cyclopropane-1-carboxamide]	474	990	483	329	261		
COc1ccc(C)cc1[C@@]1(C(=O)NS(=O)(=O)c2cccc3nc(C)ccc23)C[C@H]1c1cnc(C(C)C)cn1 (single isomer, unassigned) [Example 63]	890	1740	399	315	97	847	
COc1ccc(C)cc1[C@]1(C(=O)NS(=O)(=O)c2cccc3nc(C)ccc23)C[C@@H]1c1ccc(N(C)C)nc1 [Example 68, (1S,2R)-2-[6-(dimethylamino)pyridin-3-yl]-1-(2-methoxy-5-methylphenyl)-N-(2-methylquinoline-5-sulfonyl)cyclopropane-1-carboxamide]	1120	2760	657	217	21.1		
COc1ccc(C)cc1[C@@]1(C(=O)NS(=O)(=O)c2cccc3nc(C)ccc23)C[C@H]1c1cccc(F)c1 (single isomer, unassigned) [Example 20]	203	244		250	1		716
COc1ccc(C)cc1[C@@]1(C(=O)NS(=O)(=O)c2cccc3nc(C)ccc23)C[C@H]1c1cnc(C)c(F)c1 (single isomer, unassigned) [Example 101]	884	1000	243	199	147	842	
COc1ccc([C@@H]2C[C@]2(C(=O)NS(=O)(=O)c2cccc3nc(C)ccc23)c2cc(C)ccc2OC)cn1 [Example 33, (1R,2S)-1-(2-methoxy-5-methylphenyl)-2-(6-methoxypyridin-3-yl)-N-(2-methylquinoline-5-sulfonyl)cyclopropane-1-carboxamide]	906	1270	470	215	48.8		
COc1ccc(C)cc1[C@]1(C(=O)NS(=O)(=O)c2cccc3nc(C)ccc23)C[C@@H]1c1cccc(OC(C)C)n1 [Example 97, (1S,2S)-1-(2-methoxy-5-methylphenyl)-N-(2-methylquinoline-5-sulfonyl)-2-{6-[(propan-2-yl)oxy]pyridin-2-yl}cyclopropane-1-carboxamide]	359	988		198	0.9		
COc1ccc(C)cc1[C@@]1(C(=O)NS(=O)(=O)c2cccc3nc(C)ccc23)C[C@H]1c1cccnc1OC [Example 49, (1R,2S)-1-(2-methoxy-5-methylphenyl)-2-(2-methoxypyridin-3-yl)-N-(2-methylquinoline-5-sulfonyl)cyclopropane-1-carboxamide]	1170	1990	453	321	35.8		
